Experimental data taken from ChEMBL document CHEMBL5325469, “Research progress of STAT3-based dual inhibitors for cancer therapy” (Bioorg Med Chem, 2023).
Blank lines part the entries; values can stand above or below the compound they belong to.

Key:
[1] = biological target: Signal transducer and activator of transcription 3 (Homo sapiens, UniProt P40763); experiment: Inhibition of STAT3 phosphorylation (unknown origin)
MDA-MB-231 = experiment: Antiproliferative activity against human MDA-MB-231 cells assessed as inhibition of cell growth; format: functional, cell-based
Tubulin [2] = experiment: Inhibition of tubulin polymerization (unknown origin); format: protein-complex assay, Homo sapiens
HCT-116 [3] = experiment: Antiproliferative activity against human HCT-116 cells assessed as inhibition of cell growth; format: functional, cell-based
A549 = experiment: Antiproliferative activity against human A549 cells assessed as inhibition of cell growth; format: functional, cell-based
HL-60 = experiment: Antiproliferative activity against human HL-60 cells assessed as inhibition of cell growth incubated for 72 hrs by IncuCyte live-cell imaging analysis; format: functional, cell-based; conditions: HL-60, 72 h
K562 = experiment: Antiproliferative activity against human K562 cells assessed as inhibition of cell growth incubated for 72 hrs by IncuCyte live-cell imaging analysis; format: functional, cell-based; conditions: K562, 72 h
[4] = Antiproliferative activity against human DND41 cells assessed as inhibition of cell growth incubated for 72 hrs by IncuCyte live-cell imaging analysis; format: functional, cell-based; conditions: DND41, 72 h
HCT-116 [5] = experiment: Antiproliferative activity against human HCT-116 cells assessed as inhibition of cell growth incubated for 72 hrs by IncuCyte live-cell imaging analysis; format: functional, cell-based; conditions: HCT-116, 72 h
NCI-H460 = experiment: Antiproliferative activity against human NCI-H460 cells assessed as inhibition of cell growth incubated for 72 hrs by IncuCyte live-cell imaging analysis; format: functional, cell-based; conditions: NCI-H460, 72 h
CAPAN-1 = experiment: Antiproliferative activity against human CAPAN-1 cells assessed as inhibition of cell growth incubated for 72 hrs by IncuCyte live-cell imaging analysis; format: functional, cell-based; conditions: CAPAN-1, 72 h
Tubulin [6] = experiment: Inhibition of tubulin polymerization (unknown origin) by fluorescence-based tubulin polymerization assay; format: protein-complex assay, Homo sapiens
Z-138 = experiment: Antiproliferative activity against human Z138 cells assessed as inhibition of cell growth incubated for 72 hrs by IncuCyte live-cell imaging analysis; format: functional, cell-based; conditions: Z-138, 72 h
DU-145 = experiment: Cytotoxicity against human DU-145 cells assessed as inhibition of cell growth incubated for 24 hrs by MTT assay; format: functional, cell-based; conditions: DU-145, 24 h

Signal transducer and activator of transcription 3, sequence (P40763 whole entry): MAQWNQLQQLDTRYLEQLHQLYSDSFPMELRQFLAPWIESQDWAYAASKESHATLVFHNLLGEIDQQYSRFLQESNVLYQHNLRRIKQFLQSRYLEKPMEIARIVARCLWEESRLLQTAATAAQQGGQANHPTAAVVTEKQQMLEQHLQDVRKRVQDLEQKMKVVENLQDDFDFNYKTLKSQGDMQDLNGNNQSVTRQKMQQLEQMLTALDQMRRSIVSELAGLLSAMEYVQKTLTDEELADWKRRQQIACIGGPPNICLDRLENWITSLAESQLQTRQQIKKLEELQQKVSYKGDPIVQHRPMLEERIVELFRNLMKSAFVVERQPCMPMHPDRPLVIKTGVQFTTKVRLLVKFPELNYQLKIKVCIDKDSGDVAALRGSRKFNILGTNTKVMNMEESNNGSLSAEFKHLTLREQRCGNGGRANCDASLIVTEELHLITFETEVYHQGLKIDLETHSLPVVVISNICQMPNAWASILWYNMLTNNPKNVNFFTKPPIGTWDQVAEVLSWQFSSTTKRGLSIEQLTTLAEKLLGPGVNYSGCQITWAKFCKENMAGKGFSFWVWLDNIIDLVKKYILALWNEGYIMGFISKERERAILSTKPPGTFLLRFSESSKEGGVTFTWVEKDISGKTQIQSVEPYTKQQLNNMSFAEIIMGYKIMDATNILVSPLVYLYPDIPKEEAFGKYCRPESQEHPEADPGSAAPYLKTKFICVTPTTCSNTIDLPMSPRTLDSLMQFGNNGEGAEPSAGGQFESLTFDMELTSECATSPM

IC50 [1]: 6840 nM
IC50 (MDA-MB-231): 2850 nM
IC50 (Tubulin [2]): 830 nM
IC50 (HCT-116 [3]): 3040 nM
IC50 (A549): 1350 nM
SMILES: C=CN(c1cccc2ccccc12)S(=O)(=O)c1ccc(OC)cc1

IC50 (HL-60): 1500 nM
IC50 (K562): 1300 nM
IC50 (HCT-116 [5]): 1400 nM
IC50 (NCI-H460): 2800 nM
IC50 (Tubulin [6]): 3900 nM
SMILES: COC(=O)Nc1ccc(C(=O)Nc2ccccc2OC)c(O)c1
IC50 [4]: 1300 nM
IC50 (CAPAN-1): 1300 nM
IC50 (Z-138): 1300 nM

SMILES: COc1cccc2c1C(=O)c1c(O)c3c(c(O)c1C2=O)C[C@@](O)(C(=O)CO)C[C@@H]3O[C@H]1C[C@H](N)[C@H](O)[C@H](C)O1 [DOXORUBICIN]
IC50 (DU-145): > 30000 nM
